These results are taken from ChEMBL document CHEMBL4507319 (2021).

A value given as a limit tells only on which side of the number the result lay.

In assay [1] the target is Serine/threonine-protein kinase PAK 3 (Homo sapiens) (UniProt O75914). In words: PAK3(h) Eurofins kinase panel. To be noted: Compound concentration 1.0 uM.
For assay [2], the target named is Tyrosine-protein kinase Fes/Fps (Homo sapiens) (UniProt P07332). In words: Fes(h) Eurofins kinase panel. Particulars: Compound concentration 1.0 uM.
The target in assay [3] is Protein kinase C beta type (Homo sapiens) (UniProt P05771). In words: PKCbetaI (h) Eurofins kinase panel. To be noted: Compound concentration 1.0 uM.
Assay [4] concerns the target Testis-specific serine/threonine-protein kinase 4 (Homo sapiens) (UniProt Q6SA08). Nature of the assay: TSSK4(h) Eurofins kinase panel. To be noted: Compound concentration 1.0 uM.
The subject of another assay is BXPC-3. In words: BxPC3 cell line Proliferation assay. It is filed as functional, Homo sapiens. Particulars: time 3 day.
The target of assay [5] is cAMP-dependent protein kinase catalytic subunit beta (Homo sapiens) (UniProt P22694). Nature of the assay: PKAcβ(h) Eurofins kinase panel. To be noted: Compound concentration 1.0 uM.
In assay [6] the target is T1, Dual specificity mitogen-activated protein kinase kinase 6 (Homo sapiens) (UniProt P52564).
T1 sequence (whole entry): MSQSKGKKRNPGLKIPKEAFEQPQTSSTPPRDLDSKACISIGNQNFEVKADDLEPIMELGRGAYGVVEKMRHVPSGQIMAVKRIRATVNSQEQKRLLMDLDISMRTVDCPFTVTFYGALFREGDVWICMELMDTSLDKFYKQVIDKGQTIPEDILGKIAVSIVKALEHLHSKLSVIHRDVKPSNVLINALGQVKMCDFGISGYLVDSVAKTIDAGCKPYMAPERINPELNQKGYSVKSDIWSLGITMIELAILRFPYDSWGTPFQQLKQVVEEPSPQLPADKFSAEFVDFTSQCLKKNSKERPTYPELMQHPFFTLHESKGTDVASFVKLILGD
In words: MKK6(h) Eurofins kinase panel. To be noted: Compound concentration 1.0 uM.

The target in assay [7] is T2, Serine/threonine-protein kinase BRSK1 (Homo sapiens) (UniProt Q8TDC3).
T2 sequence (whole entry): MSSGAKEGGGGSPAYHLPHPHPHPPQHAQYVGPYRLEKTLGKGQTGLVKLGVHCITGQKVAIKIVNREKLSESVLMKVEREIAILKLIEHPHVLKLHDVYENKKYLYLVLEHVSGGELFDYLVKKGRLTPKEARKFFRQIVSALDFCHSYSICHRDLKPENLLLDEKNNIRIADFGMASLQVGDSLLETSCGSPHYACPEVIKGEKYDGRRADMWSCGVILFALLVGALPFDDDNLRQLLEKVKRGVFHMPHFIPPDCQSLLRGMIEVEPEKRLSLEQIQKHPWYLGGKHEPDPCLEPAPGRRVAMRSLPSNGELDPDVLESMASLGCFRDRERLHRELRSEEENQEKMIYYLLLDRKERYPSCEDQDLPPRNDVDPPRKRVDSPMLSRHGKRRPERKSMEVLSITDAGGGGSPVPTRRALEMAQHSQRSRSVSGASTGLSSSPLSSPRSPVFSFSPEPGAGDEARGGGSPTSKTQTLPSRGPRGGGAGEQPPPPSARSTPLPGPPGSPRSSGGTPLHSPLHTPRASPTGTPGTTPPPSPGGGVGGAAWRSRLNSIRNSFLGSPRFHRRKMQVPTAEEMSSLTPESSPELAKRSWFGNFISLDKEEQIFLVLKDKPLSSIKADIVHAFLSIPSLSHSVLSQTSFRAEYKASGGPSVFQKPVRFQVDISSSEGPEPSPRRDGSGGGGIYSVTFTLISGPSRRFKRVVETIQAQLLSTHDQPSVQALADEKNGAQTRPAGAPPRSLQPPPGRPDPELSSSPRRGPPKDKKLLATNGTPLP
In words: BrSK1(h) Eurofins kinase panel. Particulars: Compound concentration 1.0 uM.

Assay [8] deals with STE20-like serine/threonine-protein kinase (Homo sapiens) (UniProt Q9H2G2). In words: SLK(h) Eurofins kinase panel. Particulars: Compound concentration 1.0 uM.
For assay [9], the target named is Serine/threonine-protein kinase VRK2 (Homo sapiens) (UniProt Q86Y07). Nature of the assay: VRK2(h) Eurofins kinase panel. To be noted: Compound concentration 1.0 uM.
Assay [10] concerns the target T3, Ephrin type-B receptor 4 (Homo sapiens) (UniProt P54760).
T3 sequence (whole entry): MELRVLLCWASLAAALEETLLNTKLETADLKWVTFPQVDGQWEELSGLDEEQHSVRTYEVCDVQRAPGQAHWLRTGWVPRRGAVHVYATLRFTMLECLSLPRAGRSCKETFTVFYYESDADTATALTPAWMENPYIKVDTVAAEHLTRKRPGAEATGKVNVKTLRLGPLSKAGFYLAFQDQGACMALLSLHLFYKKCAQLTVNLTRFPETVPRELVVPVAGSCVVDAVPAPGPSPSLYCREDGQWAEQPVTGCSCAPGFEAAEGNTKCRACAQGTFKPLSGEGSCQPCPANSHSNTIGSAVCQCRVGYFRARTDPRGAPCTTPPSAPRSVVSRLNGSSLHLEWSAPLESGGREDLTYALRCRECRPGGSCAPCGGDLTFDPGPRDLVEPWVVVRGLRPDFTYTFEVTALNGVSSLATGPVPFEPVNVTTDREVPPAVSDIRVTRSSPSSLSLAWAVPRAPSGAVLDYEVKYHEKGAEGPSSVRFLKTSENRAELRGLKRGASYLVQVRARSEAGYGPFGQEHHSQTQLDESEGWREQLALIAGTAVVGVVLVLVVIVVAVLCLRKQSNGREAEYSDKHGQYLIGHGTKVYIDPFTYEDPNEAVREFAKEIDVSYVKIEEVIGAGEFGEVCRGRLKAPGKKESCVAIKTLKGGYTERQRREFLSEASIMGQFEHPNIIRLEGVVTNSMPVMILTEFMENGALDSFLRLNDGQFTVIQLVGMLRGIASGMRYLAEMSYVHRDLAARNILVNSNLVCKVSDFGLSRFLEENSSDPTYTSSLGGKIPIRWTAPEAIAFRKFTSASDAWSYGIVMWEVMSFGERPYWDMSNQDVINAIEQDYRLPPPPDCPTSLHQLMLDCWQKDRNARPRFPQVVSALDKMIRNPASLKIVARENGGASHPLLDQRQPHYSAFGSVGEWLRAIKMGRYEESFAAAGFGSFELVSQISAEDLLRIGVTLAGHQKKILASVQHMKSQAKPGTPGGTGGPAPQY
Nature of the assay: EphB4(h) Eurofins kinase panel. To be noted: Compound concentration 1.0 uM.

Assay [11] concerns the target Serine/threonine-protein kinase N1 (Homo sapiens) (UniProt Q16512). Nature of the assay: PRK1(h) Eurofins kinase panel. To be noted: Compound concentration 1.0 uM.
The target in assay [12] is Phosphatidylinositol 4,5-bisphosphate 3-kinase catalytic subunit gamma isoform (Homo sapiens) (UniProt P48736). In words: PI3 Kinase (p120g)(h) Eurofins kinase panel. Particulars: Compound concentration 1.0 uM.
In another assay the test system is PC-3. In words: PC-3 cell line Proliferation assay. Particulars: time 6 day. The class given is functional, Homo sapiens.
Assay [13] has as its target Cyclin-dependent kinase 2/cyclin A (Homo sapiens) (UniProt P24941+P20248+P78396). In words: CDK2/cyclinA(h) Eurofins kinase panel. It is filed as protein-complex assay. Particulars: Compound concentration 1.0 uM.

Chain of STE20-like serine/threonine-protein kinase (Homo sapiens) (Q9H2G2 whole entry, looked up): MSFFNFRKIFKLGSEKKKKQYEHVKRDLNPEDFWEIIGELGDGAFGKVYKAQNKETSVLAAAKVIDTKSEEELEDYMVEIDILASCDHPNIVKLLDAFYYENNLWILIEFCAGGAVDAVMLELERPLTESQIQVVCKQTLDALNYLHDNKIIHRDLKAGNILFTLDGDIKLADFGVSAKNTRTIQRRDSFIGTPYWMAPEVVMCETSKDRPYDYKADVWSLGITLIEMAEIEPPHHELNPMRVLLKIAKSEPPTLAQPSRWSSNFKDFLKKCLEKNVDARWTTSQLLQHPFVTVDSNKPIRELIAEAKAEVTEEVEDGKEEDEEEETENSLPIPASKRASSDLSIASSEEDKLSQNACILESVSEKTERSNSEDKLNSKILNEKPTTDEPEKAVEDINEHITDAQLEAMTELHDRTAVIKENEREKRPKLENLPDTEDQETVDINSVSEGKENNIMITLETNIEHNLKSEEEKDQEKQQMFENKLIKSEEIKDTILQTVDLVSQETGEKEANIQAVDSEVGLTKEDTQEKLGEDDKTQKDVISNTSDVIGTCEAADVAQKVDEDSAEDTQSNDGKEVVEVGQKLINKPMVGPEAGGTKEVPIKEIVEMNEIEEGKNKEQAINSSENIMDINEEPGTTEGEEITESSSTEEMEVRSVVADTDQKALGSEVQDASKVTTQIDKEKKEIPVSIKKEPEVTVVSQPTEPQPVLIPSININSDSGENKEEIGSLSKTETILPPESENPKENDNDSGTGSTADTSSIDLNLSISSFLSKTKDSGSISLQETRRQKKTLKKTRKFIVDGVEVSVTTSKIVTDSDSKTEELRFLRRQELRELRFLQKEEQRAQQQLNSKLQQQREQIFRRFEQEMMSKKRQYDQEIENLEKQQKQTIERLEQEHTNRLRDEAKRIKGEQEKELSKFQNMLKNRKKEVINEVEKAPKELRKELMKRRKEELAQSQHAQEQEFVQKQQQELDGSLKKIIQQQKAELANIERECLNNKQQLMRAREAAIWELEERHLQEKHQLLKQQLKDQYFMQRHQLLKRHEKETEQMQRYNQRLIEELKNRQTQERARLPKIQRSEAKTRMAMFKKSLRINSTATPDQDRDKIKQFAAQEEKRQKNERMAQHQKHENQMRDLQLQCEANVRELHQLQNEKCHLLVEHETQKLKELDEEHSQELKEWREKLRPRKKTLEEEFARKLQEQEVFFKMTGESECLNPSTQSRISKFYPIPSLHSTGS
Chain of Protein kinase C beta type (Homo sapiens) (P05771 2-671 limits assumed): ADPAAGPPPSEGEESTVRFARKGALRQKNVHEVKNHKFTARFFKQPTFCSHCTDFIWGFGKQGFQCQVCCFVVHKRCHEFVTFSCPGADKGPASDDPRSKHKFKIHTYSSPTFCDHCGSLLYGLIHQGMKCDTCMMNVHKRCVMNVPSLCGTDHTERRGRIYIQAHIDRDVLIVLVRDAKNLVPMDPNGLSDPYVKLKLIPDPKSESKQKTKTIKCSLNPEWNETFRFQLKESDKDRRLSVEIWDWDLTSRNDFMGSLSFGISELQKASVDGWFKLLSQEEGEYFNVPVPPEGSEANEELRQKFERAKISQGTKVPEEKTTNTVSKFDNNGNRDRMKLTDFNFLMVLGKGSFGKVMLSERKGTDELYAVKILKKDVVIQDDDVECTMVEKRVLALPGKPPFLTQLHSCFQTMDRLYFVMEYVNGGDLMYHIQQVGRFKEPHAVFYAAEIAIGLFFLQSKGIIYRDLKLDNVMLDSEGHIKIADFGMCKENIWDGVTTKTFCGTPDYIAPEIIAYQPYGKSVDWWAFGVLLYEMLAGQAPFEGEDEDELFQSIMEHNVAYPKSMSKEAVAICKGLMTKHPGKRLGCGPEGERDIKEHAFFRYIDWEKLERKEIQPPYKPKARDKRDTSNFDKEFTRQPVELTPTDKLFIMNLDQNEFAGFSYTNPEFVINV
Chain of Serine/threonine-protein kinase N1 (Homo sapiens) (Q16512 2-942 limits assumed): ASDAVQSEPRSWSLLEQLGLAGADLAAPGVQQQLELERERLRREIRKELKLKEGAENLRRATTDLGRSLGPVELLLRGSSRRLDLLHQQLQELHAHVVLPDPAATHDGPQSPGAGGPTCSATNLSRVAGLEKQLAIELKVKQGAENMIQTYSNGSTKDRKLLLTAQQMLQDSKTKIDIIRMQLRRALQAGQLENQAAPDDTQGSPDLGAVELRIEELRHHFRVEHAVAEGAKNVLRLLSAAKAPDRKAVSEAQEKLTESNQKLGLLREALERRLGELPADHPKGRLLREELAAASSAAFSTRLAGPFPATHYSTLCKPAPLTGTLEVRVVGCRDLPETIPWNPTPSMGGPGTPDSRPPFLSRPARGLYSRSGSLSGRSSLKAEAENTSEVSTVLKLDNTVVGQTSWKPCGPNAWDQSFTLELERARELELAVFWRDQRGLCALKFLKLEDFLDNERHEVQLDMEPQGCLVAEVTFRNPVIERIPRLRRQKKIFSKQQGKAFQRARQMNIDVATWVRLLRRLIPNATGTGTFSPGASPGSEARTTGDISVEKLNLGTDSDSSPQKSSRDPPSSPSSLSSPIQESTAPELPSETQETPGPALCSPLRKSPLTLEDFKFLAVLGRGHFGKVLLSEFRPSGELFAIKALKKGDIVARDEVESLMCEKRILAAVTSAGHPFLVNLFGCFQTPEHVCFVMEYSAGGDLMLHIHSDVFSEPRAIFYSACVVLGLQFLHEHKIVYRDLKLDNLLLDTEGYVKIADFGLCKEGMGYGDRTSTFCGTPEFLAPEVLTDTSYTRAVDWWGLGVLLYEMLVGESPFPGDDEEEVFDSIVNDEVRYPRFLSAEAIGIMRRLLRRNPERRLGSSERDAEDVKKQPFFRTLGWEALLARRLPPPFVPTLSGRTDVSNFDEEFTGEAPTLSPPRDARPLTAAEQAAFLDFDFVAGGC
Chain of Serine/threonine-protein kinase PAK 3 (Homo sapiens) (O75914 whole entry, looked up): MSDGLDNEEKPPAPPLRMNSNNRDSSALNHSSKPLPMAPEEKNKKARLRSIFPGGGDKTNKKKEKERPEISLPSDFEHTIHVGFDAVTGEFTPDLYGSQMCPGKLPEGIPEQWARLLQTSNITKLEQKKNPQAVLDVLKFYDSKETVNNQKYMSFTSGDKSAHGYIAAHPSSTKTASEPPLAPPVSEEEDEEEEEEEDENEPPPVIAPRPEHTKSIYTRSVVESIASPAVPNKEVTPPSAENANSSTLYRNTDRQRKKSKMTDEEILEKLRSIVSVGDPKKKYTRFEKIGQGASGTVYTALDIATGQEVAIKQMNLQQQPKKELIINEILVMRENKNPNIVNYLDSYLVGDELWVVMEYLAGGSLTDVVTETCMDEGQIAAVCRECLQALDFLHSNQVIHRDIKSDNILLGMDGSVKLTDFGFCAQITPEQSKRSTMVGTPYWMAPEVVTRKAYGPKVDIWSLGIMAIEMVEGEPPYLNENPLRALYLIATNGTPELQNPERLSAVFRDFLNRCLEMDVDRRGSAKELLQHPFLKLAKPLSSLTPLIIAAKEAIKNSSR
Chain of Phosphatidylinositol 4,5-bisphosphate 3-kinase catalytic subunit gamma isoform (Homo sapiens) (P48736 whole entry, looked up, canonical isoform): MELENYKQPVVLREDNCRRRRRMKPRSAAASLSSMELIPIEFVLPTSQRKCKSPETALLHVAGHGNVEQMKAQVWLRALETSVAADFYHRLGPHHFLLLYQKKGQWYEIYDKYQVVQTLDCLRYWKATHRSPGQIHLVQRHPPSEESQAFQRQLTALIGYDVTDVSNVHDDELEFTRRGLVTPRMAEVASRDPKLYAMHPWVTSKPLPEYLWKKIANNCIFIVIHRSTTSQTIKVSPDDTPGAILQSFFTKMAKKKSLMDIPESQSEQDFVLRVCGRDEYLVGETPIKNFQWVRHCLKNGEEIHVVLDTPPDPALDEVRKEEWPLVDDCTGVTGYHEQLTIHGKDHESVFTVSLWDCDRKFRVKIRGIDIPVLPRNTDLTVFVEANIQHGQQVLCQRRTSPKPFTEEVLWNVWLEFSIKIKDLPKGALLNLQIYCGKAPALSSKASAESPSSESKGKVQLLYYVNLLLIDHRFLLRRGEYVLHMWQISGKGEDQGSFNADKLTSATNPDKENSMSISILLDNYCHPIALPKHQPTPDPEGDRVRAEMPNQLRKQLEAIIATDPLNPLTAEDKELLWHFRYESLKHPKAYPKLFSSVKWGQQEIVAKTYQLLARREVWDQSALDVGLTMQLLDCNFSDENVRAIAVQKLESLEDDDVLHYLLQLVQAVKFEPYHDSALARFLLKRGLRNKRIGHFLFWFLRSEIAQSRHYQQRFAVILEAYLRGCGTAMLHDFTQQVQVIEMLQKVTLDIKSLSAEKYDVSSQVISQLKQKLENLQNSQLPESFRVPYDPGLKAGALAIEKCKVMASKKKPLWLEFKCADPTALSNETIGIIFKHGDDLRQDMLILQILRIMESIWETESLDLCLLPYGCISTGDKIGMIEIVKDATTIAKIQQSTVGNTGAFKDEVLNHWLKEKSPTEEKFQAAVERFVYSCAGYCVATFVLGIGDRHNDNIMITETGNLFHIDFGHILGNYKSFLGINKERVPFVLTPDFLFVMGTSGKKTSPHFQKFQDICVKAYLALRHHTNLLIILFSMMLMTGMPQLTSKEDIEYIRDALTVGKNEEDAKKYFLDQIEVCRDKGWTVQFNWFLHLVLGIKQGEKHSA
Chain of Testis-specific serine/threonine-protein kinase 4 (Homo sapiens) (Q6SA08 whole entry): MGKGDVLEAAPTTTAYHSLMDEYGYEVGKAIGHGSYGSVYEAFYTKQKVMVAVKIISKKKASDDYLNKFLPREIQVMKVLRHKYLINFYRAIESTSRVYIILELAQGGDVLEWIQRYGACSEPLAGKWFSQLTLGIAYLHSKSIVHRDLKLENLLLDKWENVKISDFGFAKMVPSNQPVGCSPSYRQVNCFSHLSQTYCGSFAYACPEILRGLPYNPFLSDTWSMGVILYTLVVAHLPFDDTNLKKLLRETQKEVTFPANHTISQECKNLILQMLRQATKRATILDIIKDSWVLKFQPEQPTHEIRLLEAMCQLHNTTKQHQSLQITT

Regarding `CCc1ccccc1C(=O)Nc1n[nH]c2c(C)c(F)c(C3C(C#N)=C(C)N(C)C(C)=C3C#N)cc12` [BAY-3827], the % residual kinase activity is 100% in assay [1]; 89% in assay [2]; 55% in [3]; 103% in [4]; 90% in assay [5]; 94% in assay [6]. The % residual kinase activity in assay [7] was 64%; in assay [8], 101%; in assay [9], 98%; in assay [10], 77%; in assay [11], 74%; in [12] it was 99%. Further, the % residual kinase activity in assay [13] was 100%. For the same compound, the “Cell Proliferation IC50” value is 11.4 µM in the assay with BXPC-3 and more than 10 µM in the assay on PC-3.
